Source: ChEMBL document CHEMBL1135453, “Inhibition of feline immunodeficiency virus (FIV) replication by DNA binding polyamides” (2002)

Legend:
Type in all cases: functional
[1] = tested on: Feline immunodeficiency virus; assay: Effect on replication of FIV 34TF10env in chronically infected feline glial cell lines G355-5 at 0.1 nM conc; RT activity per ug/mL of protein concentration
[2] = tested on: Feline immunodeficiency virus; assay: Effect on replication of FIV 34TF10 in chronically infected feline glial cell lines G355-5 at 1 nM conc; RT activity per ug/mL of protein concentration
[3] = tested on: Feline immunodeficiency virus; assay: Effect on replication of FIV 34TF10env in chronically infected feline glial cell lines G355-5 at 0 nM conc; RT activity per ug/mL of protein concentration
[4] = tested on: Feline immunodeficiency virus; assay: Effect on replication of FIV 34TF10env in chronically infected feline glial cell lines G355-5 at 1 nM conc; RT activity per ug/mL of protein concentration
[5] = tested on: Feline immunodeficiency virus; assay: Effect on replication of FIV 34TF10 in chronically infected feline glial cell lines G355-5 at 0.01 nM conc; RT activity per ug/mL of protein concentration
[6] = tested on: Feline immunodeficiency virus; assay: Effect on replication of FIV 34TF10env in chronically infected feline glial cell lines G355-5 at 1000 nM conc; RT activity per ug/mL of protein concentration
[7] = tested on: Feline immunodeficiency virus; assay: Effect on replication of FIV 34TF10env in chronically infected feline glial cell lines G355-5 at 10 nM conc; RT activity per ug/mL of protein concentration
[8] = tested on: Feline immunodeficiency virus; assay: Effect on replication of FIV 34TF10 in chronically infected feline glial cell lines G355-5 at 1000 nM conc; RT activity per ug/mL of protein concentration
[9] = tested on: Feline immunodeficiency virus; assay: Effect on replication of FIV 34TF10env in chronically infected feline glial cell lines G355-5 at 100 nM conc; RT activity per ug/mL of protein concentration
[10] = tested on: Feline immunodeficiency virus; assay: Effect on replication of FIV 34TF10env in chronically infected feline glial cell lines G355-5 at 10000 nM conc; RT activity per ug/mL of protein concentration
[11] = tested on: Feline immunodeficiency virus; assay: Effect on replication of FIV 34TF10 in chronically infected feline glial cell lines G355-5 at 0.1 nM conc; RT activity per ug/mL of protein concentration
[12] = tested on: Feline immunodeficiency virus; assay: Effect on replication of FIV 34TF10 in chronically infected feline glial cell lines G355-5 at 10000 nM conc; RT activity per ug/mL of protein concentration
[13] = tested on: Feline immunodeficiency virus; assay: Tested for the percentage decrease in replication of FIV-34TF10 at a concentration of 0.1 nM
[14] = tested on: Feline immunodeficiency virus; assay: Effect on replication of FIV 34TF10env in chronically infected feline glial cell lines G355-5 at 0.01 nM conc; RT activity per ug/mL of protein concentration
[15] = tested on: Feline immunodeficiency virus; assay: Effect on replication of FIV 34TF10 in chronically infected feline glial cell lines G355-5 at 10 nM conc; RT activity per ug/mL of protein concentration
[16] = tested on: Feline immunodeficiency virus; assay: Effect on replication of FIV 34TF10 in chronically infected feline glial cell lines G355-5 at 0 nM conc; RT activity per ug/mL of protein concentration
[17] = tested on: Feline immunodeficiency virus; assay: Effect on replication of FIV 34TF10 in chronically infected feline glial cell lines G355-5 at 100 nM conc; RT activity per ug/mL of protein concentration

Row | Compound | Reverse transcriptase activity [1] | Reverse transcriptase activity [2] | Reverse transcriptase activity [3] | Reverse transcriptase activity [4] | Reverse transcriptase activity [5] | Reverse transcriptase activity [6] | Reverse transcriptase activity [7] | Reverse transcriptase activity [8] | Reverse transcriptase activity [9] | Reverse transcriptase activity [10] | Reverse transcriptase activity [11] | Reverse transcriptase activity [12] | Decrease [13] | Reverse transcriptase activity [14] | Reverse transcriptase activity [15] | Reverse transcriptase activity [16] | Reverse transcriptase activity [17]
1 | CN(C)CCCNC(=O)c1cc(NC(=O)c2cc(NC(=O)c3cc(NC(=O)c4ccccc4C(=O)O)cn3C)cn2C)cn1C | 1990 | 800 | 1590 | 1600 | 665 | 2100 | 1700 | 480 | 1900 | 1800 | 390 | 950 | 75% | 2000 | 475 | 1200 | 490
2 | Cc1nc(N)sc1C(=O)Nc1cn(C)c(C(=O)Nc2cn(C)c(C(=O)NCCCN(C)C)n2)n1 | 1500 | 800 | 2200 | 2000 | 675 | 1700 | 1500 | 500 | 1800 | 2100 | 350 | 950 | 75% | 2000 | 475 | 1025 | 550
